According to paper PMC7197350, “Targeted chemotherapy overcomes drug resistance in melanoma” (Genes & Development, 2020):
pIC50: −log10 of the molar value.

Experiments:
Experiment in all cases: cells
Set-up in all cases: growth inhibition of A375 parental and resistant melanoma cells, dose-response curves
Conditions in all cases: Homo sapiens, A-375, 96 h; read-out: Phendione IC50
A375 BRAFi resistant = tested on: A375 BRAFi resistant
Description: (§1) Figure 2. Phendione is a small molecule inhibitor targeting PP2A. (A) Immunoblots of A375 cell lysates collected after 3 h of drug treatment as indicated; i.e., increasing concentrations of LB100 compared with 0.2 µM phendione (left) and increasing concentrations of phendione compared with 3 µM pyrene (right). DMSO was used as negative control (vehicle). (B) Growth inhibition curves of A375 cells and IC50 values after treatment with phendione or LB100 for 96 h. Data are presented as mean ± SD of three independent experiments. (C) Phosphatase activity assay for PP2A core enzyme (complex of regulatory subunit Aα and catalytic subunit Cα; top), PP1 catalytic subunit Cα (middle) and PP1 catalytic subunit Cβ (bottom) incubated with phendione or pyrene at indicated concentrations. […] IC50s (micromolar) were calculated and is shown as an inset in each graph. […] (G) Quantification of cell apoptosis measured by Annexin V staining flow cytometry. Parental A375 and A375 BRAFi-resistant cells were treated with vehicle or increasing concentration of phendione as indicated in the panels for 24 h before apoptotic cells were measured by flow cytometry. […] Representative images are shown at the left and quantification results are shown at the right. […] (I,J) Quantification of reactive oxygen species (ROS) production measured by flow cytometry in A375 (I) and A375 BRAFi-resistant (J) cells. […]

A375 = tested on: A375
Description: as §1

[1] = tested on: A375 BRAFi + MEKi resistant

With `O=C1C(=O)c2cccnc2-c2ncccc21` [phendione, 1,10-phenanthroline-5,6-dione] the pIC50 (A375 BRAFi resistant) was 6.95, the pIC50 (A375) was 7.03 and the pIC50 [1] was 6.92.
